Two compounds from paper PMC5814560, “6-Thioguanine is a noncompetitive and slow binding inhibitor of human deubiquitinating protease USP2” (Scientific Reports, 2018) can be followed below.

For experiment [1], the target named is T1, USP2 (ubiquitin-specific protease 2) (Homo sapiens, UniProt O75604). The experiment can be described thus: Ub-AFC deubiquitination kinetics, noncompetitive fit; very weak, called ineffective by the authors. In kind it is biochemical. Further details: catalytic domain, residues 258–605. The settings on record: read-out: Kis.
Target sequence in this assay (O75604 258-605): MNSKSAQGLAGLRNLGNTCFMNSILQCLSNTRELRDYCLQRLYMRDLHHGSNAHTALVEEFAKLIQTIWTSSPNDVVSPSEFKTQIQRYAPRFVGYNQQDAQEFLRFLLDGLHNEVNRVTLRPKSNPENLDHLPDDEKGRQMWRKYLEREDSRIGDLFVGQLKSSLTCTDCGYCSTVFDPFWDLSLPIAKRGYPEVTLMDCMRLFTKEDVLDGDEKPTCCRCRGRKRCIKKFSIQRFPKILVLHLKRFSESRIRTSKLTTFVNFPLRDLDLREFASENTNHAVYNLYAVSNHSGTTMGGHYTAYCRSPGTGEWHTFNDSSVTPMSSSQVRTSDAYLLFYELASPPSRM
The target of experiment [2] is T1, USP2 (ubiquitin-specific protease 2). The experiment can be described thus: X-ray crystal structure (soak, […] Å, about […] occupancy); Ub-AFC deubiquitination kinetics (Kis […], IC50 […]). In kind it is biochemical. Set-up: catalytic domain, residues 258–605; with ubiquitin (Ub) in the crystal.
Target sequence in this assay (O75604 258-605, other chains not shown): as the sequence (O75604 258-605) above

The structures appear in SMILES notation.

On to `Sc1ncnc2nc[nH]c12` [6MP, 6-mercaptopurine], for which the Ki in experiment [1] worked out at 349 ± 23.7 µM. As to `Nc1nc2nc[nH]c2c(=S)[nH]1` [6TG, 6-thioguanine], the Ki in experiment [2] was determined as 24.6 ± 1.8 µM.
